Measured values from patent US20050245606A1, “High-efficiency fullerene-based radical scavengers” (Nano-C, Inc., priority 2003, published 2005).

Experiment: Scavenging of cigarette smoke radicals in decalin, read out by DHR 6G fluorescence
Assay type: biochemical
Method: Tests were conducted to study the effectiveness of methanofullerene derivatives against radicals present in cigarette smoke (predominantly peroxyl radical). The cigarette smoke was bubbled through a glass frit into a solvent (decalin) in which radical scavengers were dissolved. The smoke then exited this solvent and was passed through a second flask, in which a fluorescent probe that fluoresces upon oxidation by radicals was used (Dihydrorhodamine 6G (DHR 6G), purchased from Molecular Probes). The variation of fluorescent signal corresponds directly to the radical content of the cigarette smoke, and thus a measure of the reduction of radicals by the radical scavenger is measured. Signals were measured every 10 seconds.
Tests were conducted to study the sensitivity of the test apparatus in Example 1 to varying concentrations of Vitamin E as a radical scavenger to scavenge radicals present in cigarette smoke (predominantly peroxyl radical). The cigarette smoke was bubbled through a cylindrical, coarse glass frit into a solvent (decalin) in which radical scavengers were dissolved. The smoke then exited this solvent and was passed through a second flask, in which a fluorescent probe that fluoresces upon oxidation by radicals was used (Dihydrorhodamine 6G (DHR 6G), purchased from Molecular Probes). The variation of fluorescent signal corresponds directly to the radical content of the cigarette smoke, and thus a measure of the reduction of radicals by the radical scavenger is measured. Signals were measured every 10 seconds.

COC(=O)CCCC1(c2ccccc2)C23C=Cc4cc5c6c7c4C21c1c2c4c(cc8ccc9cc(c6c6c9c8c4c6c17)C5)CC2=C3 (stereo not drawn) [PCBM, [6,6]-phenyl C61-butyric acid methyl ester]
difference in fluorescence signal / radical scavenging efficiency versus Vitamin E (300 μM PCBM versus 300 μM Vitamin E): very large difference in radical scavenging efficiency | reduction of radicals by the radical scavenger (fluorescent signal of DHR 6G) (scavenger dissolved in decalin, comparison with Vitamin E under identical conditions, FIG. 6A): scavenges significantly more of the radicals present in the cigarette smoke than Vitamin E

Vitamin E [reference compound]
change of fluorescent signal on doubling the scavenger concentration (150 μM versus 300 μM in decalin, FIG. 6B): very small deflection
